Results on six compounds are retold here after patent publication US4968792A, “Psychotropic benzisothiazole derivatives” (American Home Products Corporation, priority 1989, dated 1990).

In one assay the target is T1, dopamine D-2 receptor (Rattus norvegicus, UniProt P61169).
T1 construct: from tissue; host or cells: limbic brain tissue, homogenized
The assay is described as follows: dopamine D-2 receptor binding (displacement of 3H-spiroperidol, homogenized limbic brain tissue). How it is done:
High affinity for the dopamine D-2 receptor was established by the standard experimental test procedure of Fields, et al., Brain Res., 136, 578-584 (1977) and Yamamura et al., eds., Neurotransmitter Receptor Binding, Raven Press, N.Y. (1978) wherein homogenized limbic brain tissue is incubated with ^3 H-spiroperiodol and various concentrations of test compound, filtered and washed and shaken with Hydrofluor scintillation cocktail (National Diagnostics) and counted in a Packard 460 CD scintillation counter.
A general note: Loss of bound radioactivity is the signal in a displacement assay; it reports binding, not function.

Assay [1] has as its target T2, serotonin 5-HT1A receptor (Rattus norvegicus, UniProt P19327).
T2 construct: following the procedure of Hall et al., J. Neurochem; 44, 1685 (1985); from tissue
T2 sequence (P19327 1-422): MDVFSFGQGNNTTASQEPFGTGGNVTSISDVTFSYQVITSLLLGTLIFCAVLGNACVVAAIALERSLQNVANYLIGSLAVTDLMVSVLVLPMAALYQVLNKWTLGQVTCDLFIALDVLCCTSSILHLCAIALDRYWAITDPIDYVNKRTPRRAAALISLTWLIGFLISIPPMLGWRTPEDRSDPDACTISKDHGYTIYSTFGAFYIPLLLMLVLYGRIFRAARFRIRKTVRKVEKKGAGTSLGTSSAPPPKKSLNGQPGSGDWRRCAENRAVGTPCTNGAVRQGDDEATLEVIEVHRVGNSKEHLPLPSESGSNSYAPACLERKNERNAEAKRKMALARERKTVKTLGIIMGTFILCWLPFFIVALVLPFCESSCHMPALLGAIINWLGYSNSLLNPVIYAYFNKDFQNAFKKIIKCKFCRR
The assay is described as follows: serotonin 5-HT1A receptor binding (displacement of [3H]8-OHDPAT). The source says:
High affinity for the serotonin 5-HT1A receptor was established by testing the claimed compound's ability to displace [^3 H]8-OHDPAT (dipropylaminotetralin) from the 5-HT1A serotonin receptor following the procedure of Hall et al., J. Neurochem. 44, 1685 (1985). […] The anxiolytic activity of buspirone is believed to be, at least partially, due to its 5-HT1A receptor affinity (Vander Maelen et al., Eur. J. Pharmacol., 129 (1-2) 123-130 (1986).

In assay [2] the target is T2, serotonin 5-HT1A receptor. Particulars: standard for anxiolytic activity; cited from earlier work.
Assay [3] is described as follows: conditioned avoidance, shelf-jump response test. The format is in vivo, rat (male CD). The note with it: Rattus norvegicus, no CI, read-out: Avoidance Block AB50, Shelf-jump. The source says: (§1) The antipsychotic properties of the compound of Example 5 were further established by standard pharmacologically accepted procedures involving conditioned avoidance studies in which trained male CD rats (Charles River), 400-500 g. body weight are exposed to a fifteen second warning tone (conditioned stimulus) continued for an additional fifteen seconds accompanied by electric shock. The rat can avoid the electric shock by jumping to an exposed shelf (shelf-jump response). A response during the initial warning tone is considered an avoidance response, while a response during shock delivery is considered an escape response. The shelf-jump response test procedure follows that of Herman et. al., Comm. in Psychopharm., 3, pp. 165-171 (1979). A similar test procedure (Discrete Trial) in which a lever press was substituted for a shelf-jump was also used to establish the activity of the compound of Example 5. The compound was tested over a full dose range and the Avoidance Block activities reported as "AB50 's (mg/kg): Shelf-jump: 6.43 (no CI) i.p., 58.28 (no CI) p.o.; Discrete Trial: 4.80 (2.14-17.66) i.p., 35.35 (no CI) p.o.

A short description of assay [4]: conditioned avoidance, Discrete Trial (lever press). The note with it: Rattus norvegicus, read-out: Avoidance Block AB50, Discrete Trial. The format is in vivo, rat (male CD).
From the text: as §1

T1 sequence (P61169 whole entry): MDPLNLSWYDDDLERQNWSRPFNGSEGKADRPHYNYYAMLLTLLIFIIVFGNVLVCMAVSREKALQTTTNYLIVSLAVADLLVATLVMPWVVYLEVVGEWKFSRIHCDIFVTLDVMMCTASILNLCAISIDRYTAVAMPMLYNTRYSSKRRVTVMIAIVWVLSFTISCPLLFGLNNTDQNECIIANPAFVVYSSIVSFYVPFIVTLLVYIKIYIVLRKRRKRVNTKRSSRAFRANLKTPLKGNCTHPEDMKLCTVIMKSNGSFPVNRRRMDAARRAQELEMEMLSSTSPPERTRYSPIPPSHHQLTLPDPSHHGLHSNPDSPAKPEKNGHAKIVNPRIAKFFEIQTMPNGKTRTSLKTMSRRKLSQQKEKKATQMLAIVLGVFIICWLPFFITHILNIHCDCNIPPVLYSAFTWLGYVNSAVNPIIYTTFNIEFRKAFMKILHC

The inhibition is how much of the control response was suppressed. With `O=C1C2C(C(=O)N1CCCCN1CCN(c3nsc4ccccc34)CC1)C1C3CC4C(C32)C41` (stereo not drawn) [Example 6, (Exo)-octahydro-2-[4-[4-(1,2-benzisothiazol-3-yl)-1-piperazinyl]butyl]-4,5,7-metheno-1H-pentaleno[1,2-c]pyrrole-1,3(1H)-dione], the inhibition at 1 µM (at dopamine D-2 receptor; in assay [1]) was 100% each time.

Usually Ki stands for a dissociation constant, usually derived from enzyme kinetics or from competition with a known ligand. Higher therefore signals weaker binding. For `O=C1C2C(C(=O)N1CCCCN1CCN(c3nsc4ccccc34)CC1)C1C3CC4C(C32)C41` (stereo not drawn) [Example 7, (Endo)-octahydro-2-[4-[4-(1,2-benzisothiazol-3-yl)-1-piperazinyl]butyl]-4,5,7-metheno-1H-pentaleno[1,2-c]pyrrole-1,3(2H)-dione], the “D-2 Binding (Inhibition at 1 μM)” value on dopamine D-2 receptor (at 1 μM) stood at 100%. This compound displayed a Ki in assay [1] of 0.4 nM. Further, the “5-HT1A Binding (Inhibition at 1 μM)” value in assay [1] (at 1 μM) was 100%.

For the compound `O=C1C2C3C=CC(C4C=CC43)C2C(=O)N1CCCCN1CCN(c2nsc3ccccc23)CC1` (stereo not shown) [Example 4, 2-[4-[4-(1,2-Benzisothiazol-3-yl)-1-piperazinyl]butyl]3a,4,4a,6a,7,7a-hexahydro-4,7-etheno-1H-cyclobut[f]isoindole-1,3(2H)-dione], the inhibition at 1 µM at dopamine D-2 receptor is 95%. In assay [1], this compound gave an inhibition constant Ki of 0.65 nM and an inhibition at 1 µM of 97%.

As for `O=C1CC2(CCCC2)CC(=O)N1CCCCN1CCN(c2ncccn2)CC1` [buspirone], the “affinity for the 5-HT1A serotonin receptor subtype (in words)” value in assay [2] is given as “high affinity”.

As for `O=C1C2CC(C(=O)N1CCCCN1CCN(c3nsc4ccccc34)CC1)C1C2C2C3CC4C2C4C31` (stereo not shown) [Example 5, Decahydro-3-[4-[4-(1,2-benzisothiazol-3-yl)-1-piperazinyl]butyl]-1,5-methano-6,7,9-metheno-2H-pentaleno[1,2-d]azepine-2,4(3H)-dione], the Ki at dopamine D-2 receptor came out at 0.5 nM; in assay [1], 0.065 nM. The inhibition at 1 µM on dopamine D-2 receptor is 95%; in assay [1] it was 96%. For the same compound, the ED50 worked out at 6.43 mg/kg in assay [3] (ip); 58.3 mg/kg in assay [3] (po); 4.8 mg/kg in assay [4] (ip, CI in parentheses); 35.4 mg/kg in assay [4] (po, no CI).

Consider `O=C1C2C3C=CC(C4CC34)C2C(=O)N1CCCCN1CCN(c2nsc3ccccc23)CC1` (stereo not shown) [Example 3, 2-[4-[4-(1,2-Benzisothiazol-3-yl)-1-piperazinyl]butyl]-4,4a,5,5a,6,6a-hexahydro-4,6-ethenocycloprop[f]isoindole-1,3(2H,3aH)-dione], for which the inhibition at 1 µM on dopamine D-2 receptor stood at 99%; in assay [1], 100%.
